Data from PMC9145193 (Molecules, 2022).

Molecular target: T1, AChE enzyme from electrophorus electricus (eeAChE) (Electrophorus electricus, UniProt O42275)
T1 construct: purchased Merck C3389
Experiment: biochemical
Conditions: mean ± SEM from three independent experiments
Description: Donepezil was used as a positive control.
AChE activity was measured by the […] using AChE enzyme from electrophorus electricus (eeAChE) (C3389, Merck, Kenilworth, NJ, USA). AChE solution (2 U/mL) was prepared with 0.1 M phosphate buffer (pH 8.0) firstly. Varied concentrations of test compounds (20 μL), 1 mM 5′-dithiobis (2-nitrobenzoic acid) (DTNB) solution (100 μL), and AChE solution (40 μL) were added in order to each well of a 96-well plate. After incubation for 15 min at 37 °C, the reaction was initiated by adding 20 μL of acetylthiocholine iodide (1 mM) to the mixed solution. The absorbance of each plate was instantly measured at 405 nm using a microplate reader. The inhibition of each compound was estimated using the formula (1−Ai/Ac) × 100, where Ai and Ac represent the absorbance of AChE in the presence and absence of inhibitors, respectively. Each experiment was replicated three times. Plotting curves of log concentration via percentage of inhibition, the IC50 values of all tested compounds were graphically analyzed (Graph Pad Prism 8.0).

T1 sequence (O42275 24-633): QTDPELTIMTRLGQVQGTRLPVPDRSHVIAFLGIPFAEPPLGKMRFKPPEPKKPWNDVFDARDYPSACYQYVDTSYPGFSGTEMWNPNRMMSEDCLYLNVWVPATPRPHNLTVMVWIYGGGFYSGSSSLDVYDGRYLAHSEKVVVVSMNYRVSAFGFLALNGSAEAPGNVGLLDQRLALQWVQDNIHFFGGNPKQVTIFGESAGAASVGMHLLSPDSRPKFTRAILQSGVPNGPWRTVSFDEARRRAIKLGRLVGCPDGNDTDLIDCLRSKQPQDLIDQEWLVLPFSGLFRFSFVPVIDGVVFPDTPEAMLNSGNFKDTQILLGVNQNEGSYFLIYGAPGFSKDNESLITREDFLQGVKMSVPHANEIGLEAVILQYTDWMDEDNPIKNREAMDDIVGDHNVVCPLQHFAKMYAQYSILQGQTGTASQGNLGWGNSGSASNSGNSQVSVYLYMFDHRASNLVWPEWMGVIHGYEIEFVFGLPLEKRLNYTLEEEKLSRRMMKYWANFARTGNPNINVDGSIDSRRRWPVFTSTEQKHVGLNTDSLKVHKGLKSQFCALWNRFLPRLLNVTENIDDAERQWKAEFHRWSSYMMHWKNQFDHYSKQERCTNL

Structure (SMILES)	IC50 [µM]
COc1cc2c(cc1OC)C(=O)/C(=C/c1cc[n+](Cc3ccccc3)cc1C(N)=O)OC2 [13a, (Z)-1-Benzyl-3-carbamoyl-4-((6,7-dimethoxy-4-oxoisochroman-3-ylidene)methyl)pyridin-1-ium Bromide]	0.00863 ± 6e-05
COc1cc2c(cc1OC)C(=O)/C(=C/c1cc[n+](Cc3ccccc3Cl)cc1C(N)=O)OC2 [13e, (Z)-3-Carbamoyl-1-(2-chlorobenzyl)-4-((6,7-dimethoxy-4-oxoisochroman-3-ylidene)methyl)pyridin-1-ium Bromide]	0.0176 ± 0.0003
COc1cc2c(cc1OC)C(=O)/C(=C/c1cc[n+](Cc3ccc(C(F)(F)F)cc3)cc1C(C)=O)OC2 [10s, (Z)-3-Acetyl-4-((6,7-dimethoxy-4-oxoisochroman-3-ylidene)methyl)-1-(4-(trifluoromethyl)benzyl)pyridin-1-ium Bromide]	0.326 ± 0.00901
COc1cc2c(cc1OC)C(=O)/C(=C/c1cc[n+](Cc3ccc(Br)cc3)cc1C(C)=O)OC2 [10j, (Z)-3-Acetyl-1-(4-bromobenzyl)-4-((6,7-dimethoxy-4-oxoisochroman-3-ylidene)methyl)pyridin-1-ium Bromide]	0.0757 ± 0.00318
COc1cc2c(cc1OC)C(=O)/C(=C/c1cc[n+](Cc3cccc(Br)c3)cc1C(C)=O)OC2 [10i, (Z)-3-Acetyl-1-(3-bromobenzyl)-4-((6,7-dimethoxy-4-oxoisochroman-3-ylidene)methyl)pyridin-1-ium Bromide]	0.011 ± 0.00082
COc1cc2c(cc1OC)C(=O)/C(=C/c1cc[n+](Cc3ccccc3Br)cc1C(C)=O)OC2 [10h, (Z)-3-Acetyl-1-(2-bromobenzyl)-4-((6,7-dimethoxy-4-oxoisochroman-3-ylidene)methyl)pyridin-1-ium Bromide]	0.00622 ± 5e-05
COc1cc2c(cc1OC)C(=O)/C(=C/c1cc[n+](Cc3ccccc3[N+](=O)[O-])cc1C(C)=O)OC2 [10n, (Z)-3-Acetyl-4-((6,7-dimethoxy-4-oxoisochroman-3-ylidene)methyl)-1-(2-nitrobenzyl)pyridin-1-ium Bromide]	0.0136 ± 0.00072
COc1cc2c(cc1OC)C(=O)/C(=C/c1cc[n+](Cc3cccc(F)c3)cc1C(C)=O)OC2 [10c, (Z)-3-Acetyl-4-((6,7-dimethoxy-4-oxoisochroman-3-ylidene)methyl)-1-(3-fluorobenzyl)pyridin-1-ium Bromide]	0.00403 ± 0.00023
COc1cc2c(cc1OC)C(=O)/C(=C/c1cc[n+](Cc3cccc(C(F)(F)F)c3)cc1C(C)=O)OC2 [10r, (Z)-3-Acetyl-4-((6,7-dimethoxy-4-oxoisochroman-3-ylidene)methyl)-1-(3-(trifluoromethyl)benzyl)pyridin-1-ium Bromide]	0.0253 ± 0.0022
COc1cc2c(cc1OC)C(=O)/C(=C/c1cc[n+](Cc3ccccc3C)cc1C(N)=O)OC2 [13k, (Z)-3-Carbamoyl-4-((6,7-dimethoxy-4-oxoisochroman-3-ylidene)methyl)-1-(2-methylbenzyl)pyridin-1-ium Bromide]	0.0121 ± 0.0009
COc1cc2c(cc1OC)C(=O)/C(=C/c1cc[n+](Cc3cccc(Cl)c3)cc1C(C)=O)OC2 [10f, (Z)-3-Acetyl-1-(3-chlorobenzyl)-4-((6,7-dimethoxy-4-oxoisochroman-3-ylidene)methyl)pyridin-1-ium Bromide]	0.0103 ± 0.00108
COc1cc2c(cc1OC)C(=O)/C(=C/c1cc[n+](Cc3ccccc3F)cc1C(C)=O)OC2 [10b, (Z)-3-Acetyl-4-((6,7-dimethoxy-4-oxoisochroman-3-ylidene)methyl)-1-(2-fluorobenzyl)pyridin-1-ium Bromide]	0.00332 ± 0.00021
COc1cc2c(cc1OC)C(=O)/C(=C/c1cc[n+](Cc3cccc(C(F)(F)F)c3)cc1C(N)=O)OC2 [13o, (Z)-3-Carbamoyl-4-((6,7-dimethoxy-4-oxoisochroman-3-ylidene)methyl)-1-(3-(trifluoromethyl)benzyl)pyridin-1-ium Bromide]	0.043 ± 0.00044
COc1cc2c(cc1OC)C(=O)/C(=C/c1cc[n+](Cc3ccc(Cl)cc3)cc1C(N)=O)OC2 [13g, (Z)-3-Carbamoyl-1-(4-chlorobenzyl)-4-((6,7-dimethoxy-4-oxoisochroman-3-ylidene)methyl)pyridin-1-ium Bromide]	0.188 ± 0.00478
